Marks after values point to notes of the source that are not given here.

In this assay the test system is rumen fluid. The assay is described as follows: in vitro batch culture ruminal fermentation. The class given is cell-based, steer. The following applies: for Hydrogen / Methane / NH3—N / TVFA (total volatile fatty acids) / Total Gas / VFA C2 (acetate) / VFA C3 (propionate) / VFA C4 (butyrate) / VFA C5 (valerate) / VFA Ci4 (isobutyrate) / VFA Ci5 (isovalerate): high sulfur diet (1.09% S), 24 h, MoO4 25 ppm, M 5 ppm, M + AQ 5 + 10 ppm; for decrease of methane production compared to the control diet: dose effect experiment.

Where [1] appears, read: AQ 10 ppm, Ionophores 5 ppm, AQ plus Ionophore 10 + 5 ppm.
Where [2] appears, read: intermediate and high levels of 9,10 AQ, P<0.05.

Take `CC[C@@]1([C@H]2O[C@H]([C@H]3O[C@@](O)(CO)[C@H](C)C[C@@H]3C)C[C@H]2C)CC[C@H]([C@@]2(C)CC[C@]3(C[C@H](O)[C@@H](C)[C@@H]([C@H](C)[C@H](OC)[C@@H](C)C(=O)[O-])O3)O2)O1.[Na+]` [M, monensin sodium]: the “Methane Concentration” value under setting [1] is 299 Umole/24 hr. fermentation. Moreover, the “Methane concentration, Percent of Control” value (AQ 10 ppm, Ionophores 5 ppm, AQ plus Ionophore 10 + 5 ppm, control = 403) stood at 74%. Also, under “AQ 10 ppm”, the Hydrogen was 4.17^ab μMoles/24 h fermentation, the Methane is 299^b μMoles/24 h fermentation, the “NH3—N” value was 36.0^a mg/dl and the “TVFA (total volatile fatty acids)” value is recorded as 117.5^c mM. Moreover, under “AQ 10 ppm”, the “Total Gas” value was 85.2^c mL/24 h fermentation, the “VFA C2 (acetate)” value was 52.4^c moles/100 mol, the “VFA C3 (propionate)” value was 28.0^b moles/100 mol and the “VFA C4 (butyrate)” value is on record as 13.6^d moles/100 mol. Further, for the setting “AQ 10 ppm”, the “VFA C5 (valerate)” value is on record as 3.0^c moles/100 mol, the “VFA Ci4 (isobutyrate)” value is recorded as 1.3^ab moles/100 mol and the “VFA Ci5 (isovalerate)” value is recorded as 1.7^b moles/100 mol.

Turning to `O=C1c2ccccc2C(=O)c2ccccc21` [AQ, 9,10-anthraquinone], under “9,10 AQ dose effect experiment”, the “Total VFA relative to the control and untreated high sulfur diet” value is listed as “numerically but not statistically decreased”; the hydrogen concentration result is “unaffected”. Further, the “decrease of methane production compared to the control diet” value (10 ppm 9,10 AQ) was 21%. For the same compound, where the note is “25 ppm 9,10 AQ”, the “decrease of methane production compared to the control diet” value came to 41%. Also, the “Methane Concentration” value under setting [1] is on record as 265 Umole/24 hr. fermentation. The activity at 10 ppm (AQ 10 ppm, Ionophores 5 ppm, AQ plus Ionophore 10 + 5 ppm, control = 403, read-out: Methane concentration, Percent of Control) is 66%. Further, under “AQ 10 ppm”, the Hydrogen is listed as 4.27^ab μMoles/24 h fermentation, the Methane is given as 265^b μMoles/24 h fermentation, the “NH3—N” value is reported as 37.2^a mg/dl and the “TVFA (total volatile fatty acids)” value was 118.0^c mM. Where the note is “AQ 10 ppm”, the “Total Gas” value is 89.2^cb mL/24 h fermentation, the “VFA C2 (acetate)” value is 48.4^d moles/100 mol, the “VFA C3 (propionate)” value is reported as 28.1^b moles/100 mol and the “VFA C4 (butyrate)” value is listed as 17.3^a moles/100 mol. Further, where the note is “AQ 10 ppm”, the “VFA C5 (valerate)” value is reported as 3.3^b moles/100 mol, the “VFA Ci4 (isobutyrate)” value is 1.2^ab moles/100 mol and the “VFA Ci5 (isovalerate)” value is on record as 1.7^b moles/100 mol. For the same compound, for the setting “highest level of 9,10 AQ, P<0.05”, the ammonia-N entry is listed as “decreased”. Further, for the setting “intermediate and high levels of 9,10 AQ”, the “percentages of C3, C4 and C5” value is reported as “increased”. Under setting [2], the “molar proportion of C2” value was “decreased” and the total gas produced result was “decreased”. Besides, where the note is “low level of 9,10 AQ (1 ppm)”, the “effect on fermentation end-products compared to the untreated diets” value was “no effect”.

For the compound `[O]=[Mo](=[O])([O-])[O-]` [MoO4], under “AQ 10 ppm”, the Hydrogen is 4.13^ab μMoles/24 h fermentation, the Methane is listed as 451^a μMoles/24 h fermentation, the “NH3—N” value is recorded as 37.9^a mg/dl and the “TVFA (total volatile fatty acids)” value is on record as 123.9^b mM. For the same compound, under “AQ 10 ppm”, the “Total Gas” value is on record as 94.1^ab mL/24 h fermentation, the “VFA C2 (acetate)” value was 55.2^b moles/100 mol, the “VFA C3 (propionate)” value is on record as 24.2^c moles/100 mol and the “VFA C4 (butyrate)” value is 15.1^c moles/100 mol. For the same compound, for the setting “AQ 10 ppm”, the “VFA C5 (valerate)” value is reported as 2.7^d moles/100 mol, the “VFA Ci4 (isobutyrate)” value was 1.2^b moles/100 mol and the “VFA Ci5 (isovalerate)” value was 1.6^b moles/100 mol.

For the origin of these results see patent US6743440B1, “Polycyclic quinone and ionophore composition for the synergistic reduction of methane formation in ruminant animals” (Arkion Life Sciences LLC, priority 1999, dated 2004).
